The source of these data is patent US20090203685A1, “ANTI-PROLIFERATIVE COMPOUNDS FROM A 3-ARYL-COUMARINE OR 3-ARYL-QUINOLIN-2-ONE AND USES THEREOF” (EOS (ETHICAL ONCOLOGY SCIENCE) S.P.A., priority 2006, published 2009).

The test system of one series is U937 cells. Put plainly: Proliferation test ViaLight HS, U937 cells (Example 8). In kind it is cell-based, human. Particulars: Homo sapiens, U-937, 72 h, 72 h incubation; range = multiple experiments, otherwise individual experiments. On the procedure:
2C Proliferation test ViaLight® HS High Sensitivity Cytotoxicity and Cell Proliferation BioAssay Kit
This protocol allows the determination of the cytostatic and cytotoxic activities of compounds to be tested on mammalian cells in culture and was carried out essentially according to the manufacturer's recommendations.
Cells are suspended in 15 mL of their respective media and are enumerated. They are then diluted in their media in order to obtain: • 2500 cells per 90 μL per well for MRC5 cells • 5000 cells per 90 μL per well for all other cell lines. Cells are then seeded in a 96 well plate, and incubated at least 4 hours in the incubator at 37° C. in 5% CO2.
The molecules to be tested are diluted in DMEM with DMSO in order to obtain the following dilutions: • dilution at 250 μM/1% DMSO • dilution at 50 μM/1% DMSO • dilution at […] • dilution at 2 μM/1% DMSO • dilution at 400 nM/1% DMSO • dilution at 80 nM/1% DMSO For each well comprising 90 μL of cell suspension, 10 μL of a solution of the compound to be tested is added, with the 6 different concentrations. The plate is then incubated during 72 hours. One control plate is contacted with 10 μL of DMEM 1% DMSO, without compound to be tested. 50 μL of lysis buffer (test Vialight® lysis buffer) is added in each well of the control plate and the plate is incubated 10 minutes under hood.
Then, 100 μL of test buffer (test Vialight® test buffer) is added in each well and the control plate is incubated during 2 minutes. The luminescence is read in each well. The mean luminescence for each type of cells is called T0.
After the 72 h incubation, in order to determine the viability, 50 μL of lysis buffer (test Vialight® lysis buffer) is added in each well of the plates and the plates are incubated 10 minutes under hood.
Then, 100 μL of test buffer (test Vialight® test buffer) is added in each well and the plates are incubated during 2 minutes. The luminescence is read in each well. For each type of cell, the mean luminescence in the well not containing the compound is called C72 and the mean luminescence in well containing a given concentration of a compound to be tested is called T72. For each dilution (concentration of compound to be tested), T0 and T72 values are compared.
The graph is plotted for the different concentrations of compound and • GI50 (50% of growth inhibitory) is determined, this is the dose producing 50% of cell growth (intersection at Y=50); • TGI (total growth inhibitory) is determined on the graph, this is the dose producing the total arrest of the cell growth (intersection at Y=0); and • LC50 (50% of lethal concentration) is determined, this is the dose producing the death of 50% of the cells (intersection at Y=−50).
Following the protocol described in Example 2C, different compounds according to the invention have been tested for their cytostatic and cytotoxic activities on mammalian cells in culture (specifically U937 cells).
The GI50 (50% of growth inhibitory) has been determined for all the following compounds, i.e. the dose producing 50% of cell growth inhibition.
Where the GI50 provided is in the form of a range, it means that multiple experiments, whose results fall within the range indicated, were performed. Otherwise, results of individual experiments are provided.

The nature of series [1]: Viability (propidium iodide staining), A375. Type of series: cell-based. Conditions: human, A375 cells (melanoma), 500 nM. On the procedure: Propidium iodide (PI) cannot normally cross the cell membrane; it is thus excluded by viable cells but not from dying or dead cells, having a damaged membrane, where it intercalates into double-stranded nucleic acids and fluoresces when excited at 488 nm.
The cells are pelleted by gentle centrifugation 1200 rpm/5 min/4° C., then the supernatant is discarded and replaced by 1 mL of fresh medium. One hundred microliters of propidium iodide (40 μg/mL) are added to 400 μL of the cell suspension in a FACS tube and viability is measured by flow cytometry as the percentage of cells whose fluorescence recorded on FL-3 channel is comprised between 0 and 2.
Viability and cell cycle profile, tested with compound (01), at 500 nM: […]

The target of series [2] is T1, interaction between 6×His-Bcl-xL and GST-BF8 (Homo sapiens, UniProt Q07817).
T1 construct: made in house; host or cells: E. coli
T1 sequence (Q07817 whole entry): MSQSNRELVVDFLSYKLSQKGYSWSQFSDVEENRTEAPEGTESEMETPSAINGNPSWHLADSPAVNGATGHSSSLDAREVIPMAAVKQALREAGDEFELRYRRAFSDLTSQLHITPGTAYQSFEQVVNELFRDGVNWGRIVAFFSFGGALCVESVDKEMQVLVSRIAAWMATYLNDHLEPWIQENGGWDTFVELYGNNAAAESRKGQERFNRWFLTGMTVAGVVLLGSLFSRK
The experiment in a line: Pull down assay, Bcl-xL/BF8 in vitro interaction. In kind it is binding. Conditions: 50 μM, 5% DMSO; Western blot. On the procedure:
FIG. 3: Inhibition of the interaction between Bcl-xL and BF8, a peptide aptamer that targets the hydrophobic groove of BCL-2 family members. […]
C+: 6×His-Bcl-xL captured by GST-BF8, in presence of 5% DMSO. (02): 6×His-Bcl-xL captured by GST-BF8, in presence of 50 μM of compound 02 (in 5% DMSO). (01): 6×His-Bcl-xL captured by GST-BF8, in presence of 50 μM of compound 01 (in 5% DMSO).
A peptide aptamer (dubbed BF8) has been selected against the anti-apoptotic protein Bfl1, member of the BCL-2 family. […] Two lines of evidence indicate that BF8 binds the hydrophobic groove of anti-apoptotic BCL-2-like proteins. First, the amino-acid sequence of its variable region bears similarities with the sequence of the BH3 domains of pro-apoptotic members of the BCL-2 family (such as Bak or Bax), known to bind the anti-apoptotic proteins via this hydrophobic groove. Second, BF8 no longer binds a mutated variant of Bfl-1 that bears an amino-acid substitution within the said hydrophobic groove.
A Bcl-xL/BF8 in vitro interaction assay was developed to examine the capacity of the compounds of the invention to disrupt this interaction by competition with the peptide aptamer. 6×His-Bcl-xL and GST-BF8 recombinant fusion proteins were expressed in E. coli and purified using affinity chromatography. […]
In general terms: In western blotting, separated proteins are transferred to a membrane and probed.

Usually GI50 stands for the concentration at which growth is held to half of that of the control. A high value points to lower sensitivity of the cells. A word on the viability: it is a per cent measure of how many cells are alive, often set against a control. The low end stands for a greater loss of cells, the high end for better survival. Regarding `COc1cc(NC(=S)NC(=O)/C=C/c2ccco2)ccc1-c1cc2ccccc2oc1=O` [Compound 01, (2E)-3-(2-furyl)-N-({[3-methoxy-4-(2-oxo-2H-chromen-3-yl)phenyl]amino}carbonothioyl)acrylamide], the GI50 with U937 cells lay within 59 to 200 nM. This compound also registered a viability at 48 h, 0.5 µM in series [1] (48 h) of 65%. Moreover, in series [1] (72 h), the viability at 72 h, 0.5 µM amounted to 35%. Also, the “Inhibition of the in vitro interaction between 6×His-Bcl-xL and GST-BF8” value in series [2] was “inhibit”.
